Here are results for four molecules from patent US6201001A, “Imidazole antiproliferative agents” (Abbott Laboratories, priority 1999, dated 2001).

The subject of assay [1] is human colon adenocarcinoma, MDR positive (HCT-15) cells. Kind of assay: 48-hour cellular proliferation assay, HCT-15 cells (sulforhodamine). In kind it is cell-based. To be noted: HCT-15, 48-hour. On the procedure:
(§1) Compounds of this invention were tested in a 48-hour cellular proliferation assay which uses human colon adenocarcinoma, MDR positive (HCT-15) cells, and human lung large cell carcinoma, MDR negative (NCI-H460) cells, in the 96-well microtitre format described in Skehan P., et al. New Colorimetric Cytotoxicity Assay for Anticancer Drug Screening. 1990, J. Natl. Cancer Inst. 82:1107-1112, hereby incorporated by reference. Briefly, the wells of a microtitre plate were charged sequentially with cultured cells and compounds of the invention (1.0×10^-4 to 1.0×10^-11 M in 10% DMSO prepared by dissolving compounds of the invention in DMSO and adding 11 μL of the DMSO solution to 100 μL of culture medium for a final DMSO concentration of 10%). Two of the following controls were also present in each microtitre plate: a solvent (DMSO) control without drug that yielded a 0% inhibition level and a trichloroacetic acid-treated well that yielded a 100% inhibition level. The cells were grown in culture (37° C., 5% CO2 atmosphere) for 48 hours then fixed by the addition of trichloroacetic acid. The wells were stained with sulforhodamine, washed with 1% acetic acid, and treated with 0.01M tris buffer (100 μL) to solubilize the adherent dye. The absorbance of the dye solution was measured with a Molecular Devices SpectraMax340 plate reader. The percent inhibition values were obtained by calculating the proportional response of the experimental values to the absorbance values of the controls.

For assay [2], the system named is human lung large cell carcinoma, MDR negative (NCI-H460) cells. Kind of assay: 48-hour cellular proliferation assay, NCI-H460 cells (sulforhodamine). The following applies: NCI-H460, 48-hour. The class given is cell-based. The procedure: as §1

One may read the IC50 as the midpoint of a concentration-inhibition curve. In the case of `COc1ccc(-c2ncn(C)c2-c2cc(OC)c(OC)c(OC)c2)cc1N` [Example 2, 2-methoxy-5-(1-methyl-5-(3,4,5-trimethoxyphenyl)-1H-imidazol-4-yl)phenylamine], the IC50 was found to be 0.079 µM in assay [1] and 0.034 µM in assay [2].
In the same order, the values of `COc1ccc(-c2c(-c3cc(OC)c(OC)c(OC)c3)ncn2C)cc1N` [Example 1, 2-methoxy-5-(1-methyl-4-(3,4,5-trimethoxyphenyl)-1H-imidazol-5-yl)phenylamine] are 0.22 µM and 0.17 µM.
The corresponding values for `COc1ccc(-c2c(-c3cc(OC)c(OC)c(OC)c3)ncn2C)cc1F` [Example 3, 5-(3-fluoro-4-methoxyphenyl)-1-methyl-4-(3,4,5-trimethoxyphenyl)-1H-imidazole] are 0.85 µM and 0.92 µM.
On to `COc1cc(-c2ncn(C)c2-c2ccc(N(C)C)cc2)cc(OC)c1OC` [Example 4, N,N-dimethyl-4-[1-methyl-4-(3,4,5-trimethoxyphenyl)-1H-imidazol-5-yl]aniline], for which the IC50 in assay [1] was 0.25 µM; in assay [2], 0.4 µM.
